Measured values taken from patent US9090621B2, “Tyrosine kinase inhibitors” (Principia Biopharma Inc., priority 2013, dated 2015).

Test system: protein target
Assay: Reversibility of Binding (compound in solution before and after perturbation of the target, HPLC-MS/MS)
Method: The following approach was developed to differentiate compounds that form irreversible bonds with their targets, such as acrylamide compounds, from compound that bind reversibly. […] The reactions were then treated with perturbations including both denaturation with 5 M guanidine hydrochloride and digestion with trypsin, disrupting proper folding of the target. […] The concentration of compound in solution was assessed both preceding and following perturbation using high performance liquid chromatography (HPLC) coupled to tandem mass spectrometry.

## C=CC(=O)N1CCC[C@@H](n2nc(-c3ccc(Oc4ccccc4)cc3)c3c(N)ncnc32)C1 [acrylamide-containing compound 1, reference compound]
After denaturation with 5 M guanidine hydrochloride and digestion with trypsin
  Compound in solution in the denatured or digested state?: depleted from solution in both the native and perturbed state
Protein target at a higher concentration than the compound, before perturbation
  Compound in solution in the native state?: depleted from solution in both the native and perturbed state
